Experiments:
[1] = test system: human penile resistance arteries (HPRA); assay: Vascular reactivity of resistance penile arteries (myograph, norepinephrine-contracted)
Experimental: Penile small arteries, helicine arteries (lumen diameter 150-400 μm), which are the terminal branches of deep penile arteries, were dissected by carefully removing the adhering trabecular tissue, and arterial ring segments (of 2 mm length) were subsequently mounted on two 40 μm wires on microvascular double Halpern-Mulvany myographs (J.P. Trading, Aarhus, Denmark) for isometric tension recordings. The vascular segments were allowed to equilibrate for 30 min in physiological salt solution (PSS) of the following composition (each given in mM): 119 NaCl, 4.6 KCl; 1.5 CaCl2, 1.2 MgCl2, 24.9 NaHCO3, 11 Glucose, 1, 2 KH2PO4, 0.027 EDTA in water at 37° C., continuously bubbled with a 95% O2/5% CO2 mixture to maintain a pH of 7.4. Passive tension and internal circumference of the vascular segments when relaxed in situ under a transmural pressure of […] (L100) were determined. The vascular segments were then set to an internal circumference eqivalent to 90% of L100, at which the force development was close to maximal as described in Mulvany MJ, Halpern W., “Contractile properties of small resistance arteries in spontaneously hypertensive and normotensive rats”, Circ. Res., 41, 19-26, 1977. The respective literature description is incorporated by reference and is part of the disclosure.
The preparations were then exposed to 125 mM K^+(KPSS, equimolar substitution of […] in PSS) and the contractile response was measured. The arteries were contracted with 1 μm norepinephrine (approximately 80% of KPSS induced contraction) and relaxation responses were evaluated by cumulative additions of compounds to the chambers.
Relaxation responses are expressed as percentage of total relaxation (loss in tone) induced by the addition of 0.1 mM papaverine HCl to the chambers at the end of the experiment. All data are expressed as mean ± standard error. Complete concentration-response or frequency-response curves were obtained and compared by a two-factor analysis of variance (ANOVA) statistical test using StatView sotfware tor Apple computers. Erectile responses were determined by measuring the area under the curve (AUC) of the intracavemosal pressure increases to rat cavemosal nerve stimulation normalized by mean arterial pressure values. The complete frequency-response curves were compared by a two-factor ANOVA test.

[2] = test system: Male genetically diabetic rats (BB/wor rats); assay: Erectile responses to cavernosal nerve stimulation in anesthetized diabetic rats; assay type: in vivo, rat; details: 10 mg/kg intravenous; 60 min after administration; 1, 3 and 10 Hz
Experimental: Male genetically diabetic rats (BB/wor rats, Mölegaard Breeding and Research, Svensved, Denmark) were anesthetized with ketamine (60 mg/kg). The surgical procedure consisted of dissection and isolation of the right cavernous nerve through an abdominal midline incision and exposure of penile crura through a transverse perineal incision. Intracavemosal pressure (ICP) measurements were accomplished by insertion into the right crus of a 23-gauge needle connected to a disposable pressure transducer (Abbott, Sligo, Ireland) and a data acquisition system (ADInstruments, Castle Hill, Australia). Left carotid artery and right external jugular vein were catheterized for constant blood pressure measurement and saline or drug infusion, respectively. Electrical stimulation was applied by a delicate platinum bipolar hook electrode connected to a stimulator and current amplifier (Cibertec, Madrid, Spain). […]
Relaxation responses are expressed as percentage of total relaxation (loss in tone) induced by the addition of 0.1 mM papaverine HCl to the chambers at the end of the experiment. All data are expressed as mean ± standard error. […] Erectile responses were determined by measuring the area under the curve (AUC) of the intracavemosal pressure increases to rat cavemosal nerve stimulation normalized by mean arterial pressure values. […]

O=S(=O)(O)c1cc(O)ccc1O [Calcium dobesilate, calcium 2,5-dihydroxybenzenesulfonate]
potentiating effects on ACh-induced relaxation of HPRA with APA and CTX ([1]; APA 100 nM + CTX 100 nM, NOS and COX inhibition): abolished the potentiating effects
effect on ACh-induced relaxation of HPRA ([1]; calcium dobesilate 10 μM): markedly potentiated
potentiation of ACh-induced relaxation of HPRA under combined inhibition of NOS and COX ([1]; calcium dobesilate 10 μM, NOS and COX inhibition): not significantly affected
potentiation of ACh-induced relaxation of HPRA at high potassium concentration ([1]; calcium dobesilate 10 μM, high potassium 35 mM): abolished
potentiating effects on ACh-induced relaxation of HPRA resistant to NOS and COX inhibition, with miconazole ([1]; miconazole 0.3 mM): significantly reduced the potentiating effects
erectile responses to cavernosal nerve stimulation (AUC of ICP increase normalized by mean arterial pressure) [2]: significantly enhanced
